The values below come from patent publication US4812472A, “Isoxazole compounds and pharmaceutical compositions containing them for treatment and prophylaxis of retroviruses diseases” (Chemie Linz Akteingesellschaft, priority 1985, dated 1989).

pEC50: −log10 of the molar value. In brackets after ≈: the same amount, converted by molar mass.

One series concerns Rhino type 32. The experiment in a line: Virus inhibition test (MIC). The format is cell-based, rhinovirus type 32. The following applies: Enterovirus, in vitro, read-out: Minimum inhibitory conc. (MIC).
The test system of a further series is Rhino type 55. Put plainly: Virus inhibition test (MIC). The format is cell-based, rhinovirus type 55. Conditions: Enterovirus, in vitro, read-out: Minimum inhibitory conc. (MIC).
For a further series, the system named is Rhino type 26. The experiment in a line: Virus inhibition test (MIC). Conditions: Enterovirus, in vitro, read-out: Minimum inhibitory conc. (MIC). The class given is cell-based, rhinovirus type 26.
The test system of the next series is Rhino type 3. The experiment in a line: Virus inhibition test (MIC). The format is cell-based, rhinovirus type 3. Conditions: Enterovirus, in vitro, read-out: Minimum inhibitory conc. (MIC).
The test system of a further series is Rhino type 48. The experiment in a line: Virus inhibition test (MIC). The format is cell-based, rhinovirus type 48. The following applies: Enterovirus, in vitro, read-out: Minimum inhibitory conc. (MIC).
For another series, the system named is Rhino type 37. The experiment in a line: Virus inhibition test (MIC). The class given is cell-based, rhinovirus type 37. Conditions: Enterovirus, in vitro, read-out: Minimum inhibitory conc. (MIC).
The test system of a further series is Polio type 2. The experiment in a line: microbe, parasite or virus in culture. The class given is cell-based, poliovirus type 2. Conditions: Enterovirus C, read-out: Minimum inhibitory conc. (MIC).
For the next series, the system named is Rhino type 16. The experiment in a line: Virus inhibition test (MIC). The class given is cell-based, rhinovirus type 16. Conditions: Enterovirus, in vitro, read-out: Minimum inhibitory conc. (MIC).
Another series has as its system Echo type B-9. Put plainly: Virus inhibition test (MIC). Conditions: Echovirus, in vitro, read-out: Minimum inhibitory conc. (MIC). The format is cell-based, echovirus type B-9.
Series [1] is described as follows: Toxicity control, minimum toxic concentration (MTC). The class given is cell-based. Conditions: cell density still lower than in the cell control.
Another series in a line: ATH8 cell viability. The following applies: human, ath8 cells.
For the next series, the system named is HIV (HTLV-IIIB). The experiment in a line: microbe, parasite or virus in culture. The class given is cell-based.

For orientation: CC50 means the concentration at which the toxic effect on the cells reaches its halfway point. A higher CC50 goes with lower toxicity to the cells.

Regarding `Cc1cc(CCCCCCCOc2csc(C3=NCCO3)c2)on1` [Compound B, 5-(7-(2-(4,5-dihydro-2-oxazolyl)-4-thienyl)oxyheptyl)-3-methyl-isoxazole], the MIC was found to be 3 µg/mL (≈ 8.61 µM) in the series with Rhino type 32; 0.3 µg/mL (≈ 0.861 µM) with Rhino type 55; 1 µg/mL (≈ 2.87 µM) with Rhino type 26; 0.1 µg/mL (≈ 0.287 µM) in the series on Rhino type 3; 1 µg/mL (≈ 2.87 µM) in the series on Rhino type 48; 0.03 µg/mL (≈ 0.0861 µM) in the series on Rhino type 37. Also, the MIC with Polio type 2, in the series with Rhino type 16 and with Echo type B-9 was 1 µg/mL (≈ 2.87 µM) in each case. For the same molecule, the MCC in series [1] was 10 µg/mL.

For the molecule `Cc1cc(CCCCCCCOc2ccc(C3=NCCO3)s2)on1` [Compound A, 5-(7-(5-(4,5-dihydro-2-oxazolyl)-2-thienyl)-oxyheptyl)-3-methyl-isoxazole], the MIC with Rhino type 32 was 1 µg/mL (≈ 2.87 µM); in the series with Rhino type 55 it was 0.3 µg/mL (≈ 0.861 µM); in the series on Rhino type 26, 0.3 µg/mL (≈ 0.861 µM); with Rhino type 3, 0.03 µg/mL (≈ 0.0861 µM); in the series with Rhino type 48 it was 0.1 µg/mL (≈ 0.287 µM); with Rhino type 37, 0.03 µg/mL (≈ 0.0861 µM). Besides, the results for the MIC in the series with Polio type 2, with Rhino type 16 and in the series on Echo type B-9 were 0.1 µg/mL (≈ 0.287 µM), 0.3 µg/mL (≈ 0.861 µM) and 0.03 µg/mL (≈ 0.0861 µM), respectively. The CC50 in the series “ATH8 cell viability” is 35 µM. In the series “ATH8 cell viability”, this molecule gave a CC50 at 240 h of 35 µM. Also, the “inhibitory effect on HIV-induced cytopathogenicity in ATH8 cells” value in the series on HIV (HTLV-IIIB) (ATH8 cells) is given as “marked inhibitory effect”. Besides, the “ID50/MIC50 (in vitro therapeutic index)” value with HIV (HTLV-IIIB) (ATH8 cells, day 6-7 after virus inoculation) is on record as 175; in the series on HIV (HTLV-IIIB) (ATH8 cells, day 10 after virus inoculation), 175. In addition, the pEC50 in the series on HIV (HTLV-IIIB) (Human immunodeficiency virus 1, IIIB, ATH-8, 168 h, read-out: MIC50) was 6.70. Further, in [1], the MCC stood at 10 µg/mL.
